# Tests used:
# [1] = tested on: FRCjun MRA, a murine fibrosarcoma cell line; assay: MTT cell proliferation test, FRCjun MRA cells; assay type: cell-based; settings: Mus musculus; 2 mM, after 48 h of culture, FRCjunMRA cells
# Procedure: (§1) The bisphosphonates BP1 and BP2 were tested in different cell lines: • FRCjun MRA, a murine fibrosarcoma cell line produced by transfection of FR3T3 cells by the oncogene jun-4, • A 431 human carcinoma cells. These cells harbor a VEGF (vascular endothelial growth factor) autocrine loop and, after implantation in immunosuppressed mice, induce rapid development of highly angiogenic tumors. • MDA MB 435 human breast tumor cells, • HUV-EC-C, transformed human umbilical cord endothelial cells (HUVEC), • BBC, bovine cerebral capillary endothelial cells.
# (§2) Cell proliferation in the presence of different concentrations of BP1 or BP2 was measured by an MTT test after 24, 48 and 72 h of culture.
# [2] = tested on: MDA MB 435 human breast tumor cells; assay: MTT cell proliferation test, MDA MB 435 cells; assay type: cell-based; settings: 2 mM, after 48 h of culture
# Procedure: as §1, §2
# [3] = tested on: A 431 human carcinoma cells; assay: MTT cell proliferation test, A 431 cells; assay type: cell-based; settings: 2 mM
# Procedure: as §1, §2
# [4] = Trypan blue exclusion test (cytotoxicity of BP1 and BP2); assay type: cell-based; settings: even at concentrations above 5 mM
# [5] = Toxicity test in tumor-free immunosuppressed mice; assay type: in vivo; settings: one injection per day for one week
# Procedure: Tumor-free immunosuppressed mice were treated with BP1 and BP2 at doses ranging from 0.06 to 6 mg per injection and per animal. Mice received one injection per day for one week. Animals were weighed before, during and after treatment.
# A 431 tumors [6] = assay: In vivo growth of subcutaneous A 431 tumors in immunosuppressed mice; settings: for inhibition of the growth of A 431 tumors: 0.6 mg/injection/mouse, twice weekly s.c. near the tumor, after 5 weeks of treatment, P<0.05
# Procedure: A 431 cells were injected subcutaneously into immunosuppressed mice. The mice developed tumors within one week. Tumor-bearing mice were assigned randomly to a control group or to treatment groups receiving different concentrations of BP1 and BP2.
# Mice received twice weekly by subcutaneous injection near the tumor either 0.1 ml of PBS alone for the controls (n=6), or PBS containing either BP1 or BP2 at the following doses: 0.006 (n=6); 0.06 (n=6) or 0.6 mg/injection (n=6). Tumors were measured weekly and their volume V calculated by the formula: V=(4/3)πR1^2R2 wherein R1 is radius 1 and R2 radius 2, with R1<R2.
# A 431 tumors [7] = assay: Intratumoral angiogenesis of A 431 tumors (GSL 1 immunohistochemistry, image analysis); assay type: in vivo, mice; settings: observed starting from the lowest doses (0.006 mg/injection)
# Procedure: Animals were sacrificed and the tumors excised, then weighed, fixed, embedded in paraffin and sliced. Endothelial cells from tumor blood vessels laid down during tumor angiogenesis were visualized by immunohistochemical methods (GSL 1). Tumor angiogenesis was evaluated by image analysis with NIH image software.
# MCF7-ras cells [8] = assay: MCF7-ras cell growth and viability (Trypan blue test); assay type: cell-based; settings: for toxicity (cell viability, Trypan blue): 8 and 10 mM
# Procedure: MCF7-ras cells are cultivated (20,000 cells/well), on a dish of 24 wells. After incubation for 24 hours, the medium (DMEM with 10% foetal calf serum) is replaced with the same medium to which are added various concentrations of phenylacetate bisphosphonate (2 mM, 4 mM, 6 mM, 8 mM and 10 mM). The cells are incubated for 1 to 4 days at 37° C. The cell viability is controlled by the Trypan blue test.
# MCF7-ras cells [9] = assay: Reversibility of proliferation inhibition, tritiated thymidine incorporation; assay type: cell-based; settings: 10 days treatment, thymidine after 15 days
# Procedure: In order to check the reversibility of the effect of phenylacetate bisphosphonate, MCF7-ras cells have been treated with increasing concentrations of phenylacetate bisphosphonate for 10 days, the medium being changed every two days. The cells are divided in two groups. The DMEM medium supplemented with 10% of foetal calf serum is added to the first group, and the same medium with 10 mM of phenylacetate bisphosphonate is added to the second group, the medium being changed every two days. After 15 days, tritiated thymidine is added during 4 hours and the radioactivity of the suspension is determined by using a beta liquid scintigraphic counter (Beckman).
# MCF7 cells [10] = assay: Apoptosis by Annexine V-FITC / propidium iodide, MCF7 cells; assay type: cell-based; settings: 10 mM, after 4 hours of treatment
# Procedure: (§3) In order to determine the nature of the toxicity of sodium phenylacetate bisphosphonate, MCF7 and MCF7-ras cells are cultivated, and then washed after 24 hours, and cultivated for 3 hours in DMEM medium with 10% of foetal calf serum. Phenylacetate bisphosphonate (10 mM) is added to one group but not to the other group. Apoptosis is determined by the test of Annexine V conjugated with FITC antibody. Propidium iodide is used in order to determine early apoptosis (positive staining for Annexine V and negative staining with propidium iodide) and late apoptosis (positive staining with Annexine V and with propidium iodide).
# MCF7-ras cells [11] = assay: Apoptosis by Annexine V-FITC / propidium iodide, MCF7-ras cells; assay type: cell-based; settings: 10 mM, after 4 hours of treatment
# Procedure: as §3
# MCF7 cells [12] = assay: DNA degradation (agarose gel electrophoresis), MCF7 cells; assay type: cell-based; settings: 10 mM, after 96 hours
# Procedure: (§4) The cell apoptosis is confirmed by the method of DNA degradation. MCF7 and MCF7-ras cells are cultivated (5×10^5 cells in T25 flasks). After 24 hours, the cells are washed, and then cultivated in DMEM medium with 10% of foetal calf serum; phenylacetate bisphosphonate (10 mM) is added to one group, and no phenylacetate bisphosphonate is added to the other group.
# (§5) After 96 hours, the cell extract containing the fragmented DNA is incubated with 0.5 mg/ml of RNase A at 37° C. for one hour, then with 0.5 mg/ml of proteinase K for one hour at 37° C. After incubation, the fragmented DNA is precipitated by isopropanol and then dissolved in 10 mM of Tris-HCl (pH 8) […], 5% of glycerol and 0.05% bromophenol blue. The fragmented DNA separated by electrophoresis on agarose gel at 1% is marked with ethidium bromide and photographed in UV.
# MCF7-ras cells [13] = assay: DNA degradation (agarose gel electrophoresis), MCF7-ras cells; assay type: cell-based; settings: 10 mM, after 96 hours
# Procedure: as §4, §5
# MCF7-ras tumors [14] = assay: In vivo antitumor effect on MCF7-ras tumors in female athymic nude mice
# Procedure: Inoculation of 4×10^6 MCF7-ras cells in female athymic nude mice is made sub-cutaneously in a 0.1 ml volume of DMEM, which induces 70% of tumors after three weeks.
# Treatment with phenylacetate bisphosphonate begun when the mean volume of the tumors was 550 mm^3. The animals are divided in two groups, on receiving phenylacetate bisphosphonate, and the other no. Phenylacetate bisphosphonate is injected sub-cutaneously and peritumorally, twice a week, during 5 weeks, and the doses are 80 mg/kg (5 cases) and 160 mg/kg (6 cases).
# MCF7-ras tumors [15] = assay: Pro-apoptotic effect in MCF7-ras tumors, M30 antibody staining; assay type: in vivo, mice
# Text: Further, the proapoptotic effect of phenylacetate bisphosphonate is confirmed by the technique of antibody staining. The staining of apoptotic cells is made by the M30 antibody which recognises the specific site of caspases on the cytokeratine 18 filaments produced by the epithelial cells. Such filaments rapidly aggregate in the cells in early apoptosis, by hyperphosphorylation of cytokeratines. By this cytoplasmic staining, granular structures are observed inside the cytoplasm, which corresponds to cells in late apoptosis.
# MCF7-ras tumors [16] = assay: Anti-angiogenic effect in MCF7-ras tumors, GSL1 lectin method; assay type: in vivo, mice
# Procedure: The anti-angiogenic was verified by the GSL1 lectin method.
# By using GSL1 lectin, angiogenesis is determined and identified by the red coloration staining of endothelial cells with anti-GSL1 antibody. It is noted that this angiogenesis is inhibited by the treatment of the tumors with phenylacetate bisphosphonate. This effect is partial but important (80%) at the 80 mg/kg dose. and complete at 160 mg/kg.
# acute hepatitis = assay: Liver histology (HES) in nude mice having an acute hepatitis; assay type: in vivo; settings: 80 mg/kg or 160 mg/kg s.c., twice a week for five weeks
# Procedure: The study is carried out on nude mice having an acute hepatitis. The mice are divided in two groups, one being treated with sodium phenylacetate bisphosphonate, whilst the second is not. Phenylacetate bisphosphonate is administered to the treated mice sub-cutaneously (80 mg/kg or 160 mg/kg), twice a week for five weeks. The mice are sacrificed and the liver is histologically analyzed after HES (method of Hematoxiline Eosine Staining).
compound,measurement,setting,value
COP(=O)(O)C(O)(Cc1ccccc1)P(=O)(O)OC (centres unmarked) [BP2],inhibition at 2000 µM,[1],40%
same,inhibition at 2000 µM,[2],60%
same,inhibition at 2000 µM,[3]; after 48 h of culture,30%
same,inhibition at 2000 µM,"[3]; after 72 h, P<0.05",80%
same,cytotoxicity (trypan blue exclusion),[4],do not induce cytotoxicity
same,"signs of toxicity such as hair loss, diarrhea, infection or anemia",[5]; all doses tested (0.06–6 mg/injection),no signs of toxicity
same,inhibition of the growth of A 431 tumors,A 431 tumors [6],56%
same,comparative in vivo efficacy,A 431 tumors [6]; A 431 tumors in mice,greater efficacy than BP1
same,inhibition of intratumoral angiogenesis (endothelial cell area per unit of area),A 431 tumors [7],significant decrease in endothelial cell area per unit of area
"O=P(O)(O)C(O)(Cc1ccccc1)P(=O)(O)O [BP1, reference compound]",cytotoxicity (trypan blue exclusion),[4],do not induce cytotoxicity
same,"signs of toxicity such as hair loss, diarrhea, infection or anemia",[5]; doses less than 6 mg/injection,no signs of toxicity
same,inhibition of the growth of A 431 tumors,A 431 tumors [6],40%
same,inhibition of intratumoral angiogenesis (endothelial cell area per unit of area),A 431 tumors [7],significant decrease in endothelial cell area per unit of area
O=P(O)(O)C(O)(Cc1ccccc1)P(=O)(O)O [phenylacetate bisphosphonate],"toxicity (cell viability, Trypan blue)",MCF7-ras cells [8]; by the fourth day of culture,50–60%
same,"toxicity (cell viability, Trypan blue)",MCF7-ras cells [8]; three first days of culture,10%
same,effect on cell growth,"MCF7-ras cells [8]; concentrations lower than 6 mM, three first days of culture",cytostatic
same,reversibility of the inhibition of cell proliferation,MCF7-ras cells [9]; dose above 4 mM,irreversible
same,reversibility of the inhibition of cell proliferation,MCF7-ras cells [9]; dose of 2 mM,partially reversible
same,percentage of cells in late apoptosis,MCF7 cells [10]; MCF7 cells,22%
same,percentage of cells in early apoptosis,MCF7 cells [10]; MCF7 compared with MCF7-ras,almost identical in the two cell types
same,percentage of cells in late apoptosis,MCF7-ras cells [11]; MCF7-ras cells,53%
same,percentage of cells in early apoptosis,MCF7-ras cells [11]; MCF7-ras compared with MCF7,almost identical in the two cell types
same,degradation of DNA,MCF7 cells [12],dramatic degradation of DNA
same,degradation of DNA,MCF7-ras cells [13],dramatic degradation of DNA
same,tumor growth when the treatment is stopped,MCF7-ras tumors [14]; 80 mg/kg dose,tumor growth relapsed is observed
same,tumor growth when the treatment is stopped,MCF7-ras tumors [14]; 160 mg/kg dose,blocked for at least three weeks
same,inhibition of the growth of the tumors,"MCF7-ras tumors [14]; 80 and 160 mg/kg s.c. peritumorally, twice a week, 5 weeks, at the end of the treatment",irreversible and dose dependent
same,toxic effect in vivo,MCF7-ras tumors [14]; even when the treatment is applied during a long period of time,without any toxic affect
same,proliferation of MCF7-ras cells and growth of mammary tumors in vivo,MCF7-ras tumors [14]; first five or six weeks of treatment,irreversibly blocks
same,immunohistologic analysis of the tumors: what the decrease in tumor growth is related to,MCF7-ras tumors [14]; treated MCF7-ras tumors,"induction of apoptosis, to a sharp decrease of angiogenesis of the tumor and induction of fibrose in the tumor"
same,state of tumor cells (M30 / cytokeratine 18 staining),MCF7-ras tumors [15]; 80 mg/kg dose,apoptosis
same,state of tumor cells (M30 / cytokeratine 18 staining),MCF7-ras tumors [15]; 160 mg/kg dose,aponecrosis
same,inhibition of tumor angiogenesis,MCF7-ras tumors [16]; 80 mg/kg dose,80%
same,inhibition of tumor angiogenesis,MCF7-ras tumors [16]; 160 mg/kg,complete
same,hepatic toxicity noted in treated mice,acute hepatitis,4 cases out of 5
